Test results as given in patent publication US5141925A, “Vivo methods for treating coccidiosis” (Trustees of Tufts College, priority 1990, dated 1992).

How the values were obtained:
E. acervulina lectin = test: Hemagglutination inhibition assay, lectin of E. acervulina sporozoite lysate (rabbit erythrocytes); assay type: biochemical, Eimeria acervulina; settings: minimum concentration inhibiting 4 hemagglutination units of lectin; 2% rabbit erythrocytes, room temperature, 60 minutes
Description: (§1) The lectin activity is preferably determined by a hemagglutination assay of rabbit erythrocytes. It is desirably performed in "U" well microtiter plates using lysates prepared from the parasites of interest. The sporozoites of the parasite of interest are washed three times in phosphate buffered saline (PBS), and adjusted to a concentration of 1×10^7 /ml. They are lysed by sonication in "Branson" sonicator; cleared of particulate material by filtration; and assayed for lectin activity using a conventionally known hemagglutination assay. In this assay, 2% rabbit erythrocytes in PBS are added to serial doubling dilutions of the prepared test lysate in PBS containing 2 mg/ml of bovine serum albumin (BSA) and incubated at 23° C. (i.e., room temperature) for 1 hour. Lectin titer is defined as the reciprocal of the highest agglutinating dilution as determined by direct observation, which is defined as one agglutinating unit.
(§2) Sugar specificity and characterization is determined by a standard hemagglutination inhibition assay. 2% rabbit erythrocytes are added to serial doubling dilutions of the sugar-comprising test compound in PBS containing 2 mg/ml BSA and 4 hemagglutination units of lectins; followed by incubation at room temperature for 60 minutes. The minimum inhibitory concentration of the test compound is defined as the minimum concentration which is required for inhibiting 4 hemagglutination units of lectins. The following represent examples of suitable test compounds: (1) glycoproteins such as fetuine, bovine submaxillary mucin, hog gastric mucin, and -1- acid glycoprotein; (2) monosaccharides such as arabinose, fucose, glucose, galactose, mannose, N-acetylglucosamine, and N-acetylgalactosamine and their derivatives; and (3) oligosaccharides including chitobiose and chitotetrose.

E. tenella lectin = test: Hemagglutination inhibition assay, lectin of E. tenella sporozoite lysate (rabbit erythrocytes); assay type: biochemical, Eimeria tenella; settings: minimum concentration inhibiting 4 hemagglutination units of lectin; 2% rabbit erythrocytes, room temperature, 60 minutes
Description: as §1, §2

E. maxima lectin = test: Hemagglutination inhibition assay, lectin of E. maxima sporozoite lysate (rabbit erythrocytes); assay type: biochemical, Eimeria maxima; settings: minimum concentration inhibiting 4 hemagglutination units of lectin; 2% rabbit erythrocytes, room temperature, 60 minutes
Description: as §1
Sugar specificity and characterization is determined by a standard hemagglutination inhibition assay. 2% rabbit erythrocytes are added to serial doubling dilutions of the sugar-comprising test compound in PBS containing 2 mg/ml BSA and 4 hemagglutination units of lectins; followed by incubation at room temperature for 60 minutes. […]

[1] = tested on: embryonic chick kidney cells; test: 3H uracil counts of host cells with fetuin, no parasite; assay type: cell-based; settings: Host Cells + 15 mg/ml Fetuin, mean of eight cultures
Experimental: (§3) The sporozoites are then pretreated for one hour in cell culture nutrient (Waymouth's MAB 87/3, without serum) containing various concentration of inhibiting sugars, such as 0.1, 1.0, and 10.0 mg/ml fetuine, before being inoculated onto 24-48 hour primary cultures of embryonic chick kidney cells prepared in 24 or 96 well plates. Treatment with the inhibiting sugar, such as fetuine, is continuous at the tested concentration during the incubation period, allowing the parasite development to proceed for 48 or 96 hours. Nutrient is changed every 48 hours. Because parasites developing in cell culture, but not the host cells, take up ^3 H uracil, add 2 u Ci to each well in a 96 well plate 18 to 24 hours beore counting by liquid scintillation. Nutrient is removed from the parasitized cell cultures which are then treated with PBS solution, pH 7.6-7.8, containing 0.5% trypsin and 0.022% EDTA to detach the cells from the culture vessel, and harvested with a PHD Cell Harvester (Cambridge Instrument) onto glass fiber filter discs. Individual discs are placed into scintillation vials with 3.5 ml Toluene (plus 5.262 grams per 4 liters of PPO [2,5-diphenyloxazole]) and samples are then counted in a Beckman scintillation counter.

E. tenella = test: Inhibition of E. tenella development in cell culture (3H uracil uptake, Schmatz et al.); assay type: cell-based, Eimeria tenella; settings: for Scintillation Counts (24 hr), Trial 1 / Scintillation Counts (24 hr), Trial 2: 96 hours development, mean of eight cultures
Experimental: A series of experimental assays were performed to measure the in vitro inhibition of Coccidia infections by compositions comprising at least one sugar. The inhibition assay is one developed by Schmatz et al. [J. Protozology 33:109-114 (1986)] in which inhibition of sporozoite development is correlated with a decrease in ^3 H uracil uptake by the host cells.
Sporozoites are excysted aseptically from sterile coccidis oocysts, cleaned of debris by passage through a cellulose or glass wool column, counted, and diluted to a concentration of approximately 2.5×10^5 sporozoites per ml.
as §3

[2] = Host Cells + Parasite + 5 mg/ml Fetuin
[3] = Host Cells + Parasite + 10 mg/ml Fetuin
[4] = Host Cells + Parasite + 15 mg/ml Fetuin

| Molecule | Lowest Concentration that Inhibited Lectin Agglutination, E. acervulina (E. acervulina lectin) [mg/mL] | Lowest Concentration that Inhibited Lectin Agglutination, E. tenella (E. tenella lectin) [mg/mL] | further results |
| --- | --- | --- | --- |
| Bovine Submaxillary Mucin [Bovine Submaxillary Mucin (BSM)] | 0.03 | 0.083 |  |
| Chitobiose |  | 1.25 |  |
| O=C[C@@H](O)[C@H](O)[C@H](O)CO [Arabinose] | 25.0 |  |  |
| Hog Gastric Mucin | 0.5 | 0.125 |  |
| COC1O[C@H](CO)[C@@H](O)[C@H](O)[C@H]1O (stereo partly drawn) [1-o-CH3 -D-Glucoside] |  | 4.1 |  |
| C[C@@H]1OC(O)[C@@H](O)[C@H](O)[C@@H]1O (single isomer, unassigned) [L(-)-Fucose] |  | 1.25 |  |
| CC(=O)N[C@H]1[C@H](O[C@H]2[C@H](O)[C@@H](NC(C)=O)C(O)O[C@@H]2CO)O[C@H](CO)[C@@H](O[C@@H]2O[C@H](CO)[C@@H](O[C@@H]3O[C@H](CO)[C@@H](O)[C@H](O)[C@H]3NC(C)=O)[C@H](O)[C@H]2NC(C)=O)[C@@H]1O (stereo partly drawn) [Chitotetrose] |  | 0.03 |  |
| Acid Glycoprotein | 0.5 | 1.25 |  |
| O=[N+]([O-])c1ccc(OC2O[C@H](CO)[C@@H](O)[C@H](O)[C@H]2O)cc1 (stereo partly drawn) [P-Nitro-o-D-Glucoside] |  | 12.5 |  |
| Fetuin (protein, UniProt P12763 19-359, looked up, glycoprotein) Alpha-2-HS-glycoprotein: IPLDPVAGYKEPACDDPDTEQAALAAVDYINKHLPRGYKHTLNQIDSVKVWPRRPTGEVYDIEIDTLETTCHVLDPTPLANCSVRQQTQHAVEGDCDIHVLKQDGQFSVLFTKCDSSPDSAEDVRKLCPDCPLLAPLNDSRVVHAVEVALATFNAESNGSYLQLVEISRAQFVPLPVSVSVEFAVAATDCIAKEVVDPTKCNLLAEKQYGFCKGSVIQKALGGEDVRVTCTLFQTQPVIPQPQPDGAEAEAPSAVPDAAGPTPSAAGPPVASVVVGPSVVAVPLPLHRAHYDLRHTFSGVASVESSSGEAFHVGKTPIVGQPSIPGGPVRLCPGRIRYFKI | 0.13 | 0.078 | Lowest Concentration that Inhibited Lectin Agglutination, E. maxima (E. maxima lectin): 0.4 mg/mL; Scintillation Counts (24 hr), Trial 1 [1]: 7,826.4; Scintillation Counts (24 hr), Trial 2 [1]: 1,942.7; Scintillation Counts (24 hr), Trial 1 (E. tenella; [2]): 8,135.0; Scintillation Counts (24 hr), Trial 2 (E. tenella; [2]): 1,394.7; Scintillation Counts (24 hr), Trial 1 (E. tenella; [3]): 8,625.6; Scintillation Counts (24 hr), Trial 2 (E. tenella; [3]): 1,556.4; Scintillation Counts (24 hr), Trial 1 (E. tenella; [4]): 4,328.3; Scintillation Counts (24 hr), Trial 2 (E. tenella; [4]): 796.1; 3H uracil uptake, inhibition of E. tennella development (in words) (E. tenella; summary of Table E2): substantial reductions |
